SMILES strings stand for the structures. Activity calls are given as the source filed them. No cut-off for these calls is given here. Peptide text beside a SMILES is read from it.

Drawing on ChEMBL document CHEMBL3244112, “Dipeptides of O-methyl-L-threonine as potential antimalarials” (J Med Chem, 1979), this text covers Activity for five compounds.

The test system of data set [1] is Plasmodium berghei. The data set can be described thus: Antimalarial activity against Plasmodium berghei infected in mouse assessed as increase of survival time of host. Format: functional, organism-based.
The subject of data set [2] is Plasmodium berghei. Nature of the data set: Antimalarial activity against Plasmodium berghei infected in mouse assessed as increase of survival time of host at 640 mg/kg. Format: functional, organism-based. Details: dose 640 mg/kg.
The test system of a further data set is Mus musculus. Nature of the data set: Toxicity in Plasmodium berghei infected mouse at <640 mg/kg. The following applies: in vivo. Format: organism-based.
Data set [3] relates to Plasmodium berghei. Nature of the data set: Antimalarial activity against Plasmodium berghei infected in mouse assessed as increase of survival time of host at 160 to 640 mg/kg. Format: functional, organism-based.

`CO[C@H](C)[C@H](N)C(=O)N[C@H](C(=O)O)[C@@H](C)OC` (H-Thr(Me)-Thr(Me)-OH): the outcome in the data set with Plasmodium berghei [1] and in the data set on Plasmodium berghei [2] was Active. For the compound `CC(C)C[C@H](N)C(=O)O` [LEUCINE], in the data set with Plasmodium berghei [2], the result was inactive. Moreover, in the data set on Mus musculus, the Activity entry is listed as “Non-toxic”. Turning to `CO[C@H](C)[C@H](N)C(=O)O`, the outcome in the data set with Plasmodium berghei [3] was Active. As for `CO[C@H](C)[C@H](N)C(=O)N[C@@H](CC(C)C)C(=O)O` (H-Thr(Me)-Leu-OH), the outcome in the data set with Plasmodium berghei [2] was inactive. Further, the Activity result in the data set with Mus musculus was “Non-toxic”. In the case of `CO[C@H](C)[C@H](NC(=O)[C@@H](N)CC(C)C)C(=O)O` (H-Leu-Thr(Me)-OH), the result in the data set with Plasmodium berghei [2] was inactive. Also, in the data set with Mus musculus, the Activity entry is “Non-toxic”.
